From PubChem BioAssay AID488890 (Southern Research Specialized Biocontainment Screening …, 2010)
Inconclusive results are not listed. The source made the active and inactive calls. No rule for the calls is given here.

system: Mycobacterium tuberculosis non-replicating, growth inhibition; test: growth inhibition of non-replicating M. tuberculosis (AID 488890)

| SMILES | IC50 |
| --- | --- |
| Cc1cc(Br)ccc1OCC(=O)NNC(=O)c1cnccn1 | 6.09 µM |
| CCOC(=O)C1CSC(CC(=O)Nc2ccc(Cl)c(Cl)c2)C(=O)N1 (stereo not drawn) | 10.7 µM (inactive) |
| CN1C(=O)N(C)c2ccc(C=O)c3cccc1c23 | 3.65 µM |
| CNC(=S)N1CCN(c2c(F)cc3c(=O)c(C(=O)O)cn(C4CC4)c3c2OC)CC1C (stereo not drawn) | 0.42 µM |
| Cn1c(=O)c(C(=O)Nc2ccccn2)c(O)c2ccccc21 | 13.2 µM (inactive) |
| CC(C)[C@H]1CN=C2N(C[C@H](C)NC(=O)CCC3CCCCC3)[C@H](Cc3ccc(O)cc3)CN21 | 19.3 µM (inactive) |
| OCC#CCSc1nnc(-c2ccc(Br)cc2)o1 | 0.33 µM |
| COc1cccc(C(=O)OCn2nnc3ccccc3c2=O)c1OC | 19 µM (inactive) |
| CCc1ccc(C(C)NC(=O)C2CCCO2)cc1 (stereo not drawn) | 8.61 µM |
| Cc1cc(C)n2nc(S(=O)(=O)Nc3c(Cl)cccc3Cl)nc2n1 | 3.15 µM |
| CC(=O)Nc1cccc(-c2nc3ccccc3c(=O)o2)c1 | 7.84 µM |
| Oc1oc(-c2ccco2)nc1C=Nc1cccc(Cl)c1 | 7.88 µM |
| COC(=O)[C@H](CC(C)C)NC(=O)NCCC1=CCCCC1 | 12.8 µM (inactive) |
| O=C(COc1ccccc1)Nc1nnc(-c2ccc3c(c2)CCCC3)o1 | 0.9 µM |
| O=C(Nc1nc(-c2ccccn2)cs1)c1ccco1 | 6.64 µM |
| O=C(COC(=O)c1ccc([N+](=O)[O-])s1)Nc1ccc(Cl)cn1 | 2.37 µM |
| CCOC(=O)C(=O)Cc1nc2ccccc2s1 | 6.54 µM |
| COc1cc(C=O)ccc1OCCOCCOc1ccc(Cl)cc1 | 27.8 µM (inactive) |
| N#Cc1ccc(COC(=O)CCc2c[nH]c3ccccc23)cc1 | 4.68 µM |
| CCn1c(/C=N/NC(=O)c2ccc(OC)cc2)nc2ccccc21 | 7.78 µM |

| SMILES | IC50 |
| --- | --- |
| O=C(COC(=O)c1cc2ccccc2oc1=O)Nc1ccc(F)cc1F | 10.3 µM (inactive) |
| O=C(Nc1ccc([N+](=O)[O-])cc1)C1COc2ccccc2O1 (stereo not drawn) | 10.2 µM (inactive) |
| Cc1cc(Br)ccc1OCC(=O)NNC(=O)C(=O)Nc1ccccc1 | 1.22 µM |
| CCCCOC(=O)c1ccc(NC(=O)C2CCCO2)cc1 (stereo not drawn) | 10 µM (inactive) |
| C=C(C)C1CC=C(C)/C(=N/NC(=O)CNc2ccc(OCC)cc2)C1 (stereo not drawn) | > 25 µM (inactive) |
| COc1ccc(C(=O)N/N=C(\C)c2ccccn2)cc1OC | 4.92 µM |
| C/C(O)=C\c1nc2ccccc2oc1=O | 3.18 µM |
| CCSc1nsc(NC(=O)Nc2ccc(F)cc2F)n1 | 18.9 µM (inactive) |
| O=C(NCCC1=CCCCC1)c1coc(=O)c(Br)c1 | 23.7 µM (inactive) |
| Clc1ccc(OCCCCN2CCc3ccccc3C2)cc1 | 9.36 µM |
| c1ccc(-c2nnc(SCc3cn4ccsc4n3)o2)cc1 | 11.1 µM (inactive) |
| O=C(OCc1cccc(F)c1)c1ccc2c(=O)n3c(nc2c1)CCC3 | 8.62 µM |
| O=C(Nc1ncc([N+](=O)[O-])s1)c1ccc2c(c1)OCO2 | 4.75 µM |
| O=c1oc2ccccc2c2c1nc(C(F)(F)F)n2-c1ccccc1 | 2 µM |
| Cc1cccc(CSc2nnc(-c3ccco3)o2)c1 | 0.67 µM |
| O=C(Cc1ccccc1)Nc1ccc(C(=O)NCC2COc3ccccc3O2)cc1 (stereo not drawn) | 28.3 µM (inactive) |
| CN(Cc1ccccc1)C(=O)c1ccc([N+](=O)[O-])o1 | 3.29 µM |
| CCS(=O)(=O)c1ncc(Cl)c(C(=O)Nc2ccc(C)cc2)n1 | 4.64 µM |
| Cc1ccc(C(=O)COC(=O)CCc2ccc(S(=O)(=O)N3CCCCC3)cc2)cc1 | 23 µM (inactive) |
| O=C(NNc1ccc([N+](=O)[O-])cc1)C1CC1c1ccccc1 (stereo not drawn) | 8.96 µM |

| SMILES | IC50 |
| --- | --- |
| COC(=O)C1CC(=O)N(c2ccc(OCc3ccccc3Cl)cc2)C1 (stereo not drawn) | 3.53 µM |
| CCOc1cc(CNCCO)cc(Br)c1OCc1ccc(Cl)cc1 | 5.65 µM |
| CCC1CCCCN1S(=O)(=O)c1ccc(C(=O)Nc2nnc(-c3cccs3)o2)cc1 (stereo not drawn) | 11 µM (inactive) |
| O=C(Oc1ccccc1)c1ccc(NC(=O)c2ccco2)cc1 | 7.33 µM |
| CCC(CC)COC(=O)C(C#N)c1nc2ccccc2nc1N1CCN(CC)CC1 (stereo not drawn) | 15.4 µM (inactive) |
| CCCCCCCC(=O)N/N=C(\C)c1ccc(O)cc1O | 1.57 µM |
| Cc1ccc(-c2nnc(SCC#CCOC(=O)c3ccco3)o2)cc1 | 0.11 µM |
| Cc1cc2oc3ccc(NCCCn4ccnc4)cc3c(=O)c2cc1C | 20.9 µM (inactive) |
| CNCc1ccccc1Sc1cc(O)ccc1O | 5.19 µM |
| O=C1Nc2ccccc2/C1=C/C(=O)c1cccs1 | 13.4 µM (inactive) |
| C[C@@H]1CN=C2N(CCNC(=O)CCC3CCCCC3)[C@H](Cc3ccc(O)cc3)CN21 | 18.9 µM (inactive) |
| Cc1ccc(C)c(-c2csc(NC(=O)c3cnccn3)n2)c1 | 3.13 µM |
| Cc1ccc(/C=N/NC(=O)c2ccncc2)s1 | 1.43 µM |
| CC(=O)Nc1nc2ccccc2n1CCOc1ccccc1Cl | 5.37 µM |
| Cc1ccc2nc(-c3ccccn3)c(NC3CCCC3)n2c1 | 12.5 µM (inactive) |
| CCc1cc(C=NC2CCCCC2)c(O)s1 | 1.78 µM |
| O=C(N/N=C/c1cccc(F)c1)c1c(O)c2ccccc2[nH]c1=O | 3.17 µM |
| Cc1csc(NC(=O)c2cc([N+](=O)[O-])cc([N+](=O)[O-])c2)n1 | 7.76 µM |
